Measurements reported in patent publication US20220162610A1, “NOVEL RNA TRANSCRIPT” (PTC Therapeutics, Inc., priority 2020, published 2022).

What was measured:
[1] = tested on: human HTT intron 49 minigene; assay: Human HTT intron 49 minigene splicing in transfected HEK293 cells (endpoint PCR); assay type: cell-based; conditions: 10 nM, 100 nM, 1 μM, 24 h
Description: To identify potential sequence elements, human, mouse, and hybrid mouse/human HTT intron 49 minigene constructs were generated (FIG. 7A,7Bi-xii, 7Di-viii and 7Ei-vi). HEK293 cells transfected with the minigene constructs were treated with varying concentrations of test compounds in a final concentration 0.05% DMSO and incubated for 24 hours. Total RNA was isolated from the cells using the RNeasy plus mini kit (Qiagen) and RNA concentration and quality were assessed using a NanoDrop spectrophotometer (Thermo Fisher Scientific). cDNA was synthesized using an iScript™ cDNA synthesis kit (Bio-rad Laboratories) according to the manufacturer's instructions. Endpoint PCRs were set up using Platinum™ PCR SuperMix High Fidelity (Invitrogen) and the resulting PCR products separated on 2% eGels (Invitrogen). Primers were directed against common sequences in the minigene constructs: […]

human HTT protein = assay: Pharmacodynamic study in Hu97/18 mice, HTT protein in tissues, CSF and plasma; assay type: in vivo
Description: Test mice were euthanised and brain, muscle (quadriceps), and blood samples were harvested 2 hours after the last dose on Day 20. Prior to analysis, crude total protein from brain and muscle tissue samples was prepared by sample lysis in MSD® assay buffer 1 (MSD®) with Complete™ Protease Inhibitor Cocktail added (Roche Diagnostics). Tissues were then homogenised using TissueLyser II (Qiagen) plus a 5 mm stainless steel bead. The lysate was clarified by centrifugation at 16,000×g for 20 minutes at 4° C. and the total protein concentration quantified with the Pierce™ BCA Protein Assay Kit (Thermo Scientific) according to the manufacturer's instructions. Whole blood was collected by cardiac puncture into EDTA collection tubes. An aliquot (100-200 μL) was added to 1.5 mL of eBioscience™ 1× Red Blood Cell Lysis Buffer (Thermo Fisher) and mixed well for 5 minutes before collecting the white blood cells (WBC) by centrifugation at 400×g. The supernatant was discarded, and the pellet of WBCs was frozen in liquid nitrogen and stored at −70° C. Brain and muscle sample lysates were analysed for hHTT and KRAS protein expression using the ECL protein assay (described previously); using the same method WBC samples were also analysed for hHTT expression but not KRAS.
Hu97/Hu18: Both sexes of 2-4 month old Hu97/181 mice were used. […]

Compound	compound-induced splicing of minigene [1]	HTT protein in striatum and cortex (human HTT protein; 2, 6 or 12 mg/kg daily for 21 days)	HTT protein within the brain and peripheral tissues (human HTT protein; Hu97/18 mice)
CC1(C)CC(Oc2ccc(-c3ccc(-c4cn[nH]c4)cc3O)nn2)CC(C)(C)N1 [HTT-C2]	responded in a dose dependent manner		
CCN1CCC(c2cc3c(F)cc(-c4cc(C)c5nc(C)cn5n4)cc3nn2)CC1 [HTT-D3]		uniform HTT protein reduction	dose dependent and more equitable lowering of HTT protein
